# Results from US12065436B2, “Cardiac sarcomere inhibitors” (Cytokinetics, Inc., priority 2018, dated 2024).
# Biological target: bovine cardiac myofibrils (full-length cardiac myosin ATPase in the native sarcomere) (Bos taurus (Bovine), UniProt Q9BE39)
# Assay: Skinned bovine cardiac myofibril ATPase assay (PK/LDH-coupled)
# Assay type: biochemical
# Settings: Ca2+ activating to 75% of maximal rate; for CDMF75 IC15: concentration giving 15% inhibition; for IC50: read-out: CDMF75 IC50
# Outline: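 Inhibition of steady-state ATPase read at 340 nm through a PK/LDH-coupled NADH system (0.5 mM NADH, 1.5 mM PEP). Detergent-skinned bovine cardiac myofibrils, 1 mg/mL, were tested at pH 6.8 in PIPES/MgCl2 with 50 μM ATP and calcium adjusted to give pCa50 or pCa75 activation.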
# bovine cardiac myofibrils (full-length cardiac myosin ATPase in the native sarcomere), sequence (Q9BE39 whole entry): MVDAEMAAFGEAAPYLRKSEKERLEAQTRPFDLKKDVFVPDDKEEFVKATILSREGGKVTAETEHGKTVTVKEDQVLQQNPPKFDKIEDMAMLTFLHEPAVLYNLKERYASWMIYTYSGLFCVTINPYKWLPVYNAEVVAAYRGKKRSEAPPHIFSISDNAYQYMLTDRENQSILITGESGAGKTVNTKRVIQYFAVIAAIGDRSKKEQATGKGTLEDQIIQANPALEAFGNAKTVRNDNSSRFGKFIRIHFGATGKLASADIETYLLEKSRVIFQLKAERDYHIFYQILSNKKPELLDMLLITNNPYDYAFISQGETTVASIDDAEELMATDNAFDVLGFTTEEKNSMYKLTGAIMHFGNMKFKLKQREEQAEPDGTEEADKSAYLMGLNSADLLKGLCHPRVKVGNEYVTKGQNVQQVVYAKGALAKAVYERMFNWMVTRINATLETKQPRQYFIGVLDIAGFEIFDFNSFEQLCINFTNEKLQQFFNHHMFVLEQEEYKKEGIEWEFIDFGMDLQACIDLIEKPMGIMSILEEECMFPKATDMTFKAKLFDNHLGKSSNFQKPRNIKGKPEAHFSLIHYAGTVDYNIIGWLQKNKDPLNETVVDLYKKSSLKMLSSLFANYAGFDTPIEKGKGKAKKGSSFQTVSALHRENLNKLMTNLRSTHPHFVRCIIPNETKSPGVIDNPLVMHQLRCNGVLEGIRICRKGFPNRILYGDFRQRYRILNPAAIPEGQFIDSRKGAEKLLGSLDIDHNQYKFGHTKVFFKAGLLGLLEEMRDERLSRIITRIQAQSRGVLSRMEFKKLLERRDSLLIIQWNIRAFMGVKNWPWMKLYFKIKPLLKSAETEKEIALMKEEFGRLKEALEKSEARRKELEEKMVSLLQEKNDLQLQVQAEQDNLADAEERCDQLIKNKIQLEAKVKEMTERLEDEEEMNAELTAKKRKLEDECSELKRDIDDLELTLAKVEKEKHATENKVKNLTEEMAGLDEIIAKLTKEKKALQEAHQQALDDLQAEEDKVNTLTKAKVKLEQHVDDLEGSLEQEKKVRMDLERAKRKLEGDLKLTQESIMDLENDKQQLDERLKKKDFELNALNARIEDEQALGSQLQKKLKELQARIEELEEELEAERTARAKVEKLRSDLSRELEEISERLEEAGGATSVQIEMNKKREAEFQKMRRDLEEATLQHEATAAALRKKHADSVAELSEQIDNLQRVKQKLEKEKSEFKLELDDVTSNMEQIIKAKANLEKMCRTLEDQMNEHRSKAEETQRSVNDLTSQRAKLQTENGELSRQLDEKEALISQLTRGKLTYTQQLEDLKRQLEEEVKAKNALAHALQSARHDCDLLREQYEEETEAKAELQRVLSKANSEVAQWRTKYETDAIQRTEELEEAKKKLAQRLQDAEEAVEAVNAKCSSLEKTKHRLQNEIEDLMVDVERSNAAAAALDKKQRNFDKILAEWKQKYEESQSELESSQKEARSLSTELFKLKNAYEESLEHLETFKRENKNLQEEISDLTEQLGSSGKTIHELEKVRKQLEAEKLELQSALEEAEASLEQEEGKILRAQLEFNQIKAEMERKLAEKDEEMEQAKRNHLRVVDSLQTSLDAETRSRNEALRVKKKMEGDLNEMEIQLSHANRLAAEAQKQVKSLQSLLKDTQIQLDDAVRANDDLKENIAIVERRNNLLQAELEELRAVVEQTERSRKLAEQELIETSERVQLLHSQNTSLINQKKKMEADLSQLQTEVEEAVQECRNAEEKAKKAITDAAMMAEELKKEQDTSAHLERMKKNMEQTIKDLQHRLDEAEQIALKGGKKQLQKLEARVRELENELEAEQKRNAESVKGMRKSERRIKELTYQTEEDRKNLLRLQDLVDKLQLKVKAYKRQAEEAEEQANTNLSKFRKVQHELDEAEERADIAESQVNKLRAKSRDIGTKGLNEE
# bovine cardiac myofibrils (full-length cardiac myosin ATPase in the native sarcomere), sequence (P85100 whole entry partner): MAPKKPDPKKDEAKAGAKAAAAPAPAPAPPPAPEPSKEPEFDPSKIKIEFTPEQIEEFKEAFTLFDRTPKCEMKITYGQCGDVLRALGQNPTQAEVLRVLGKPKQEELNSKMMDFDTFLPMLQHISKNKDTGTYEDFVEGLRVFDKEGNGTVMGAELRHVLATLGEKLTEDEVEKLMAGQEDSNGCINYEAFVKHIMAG
# bovine cardiac myofibrils (full-length cardiac myosin ATPase in the native sarcomere), sequence (Q3SZE5 whole entry partner): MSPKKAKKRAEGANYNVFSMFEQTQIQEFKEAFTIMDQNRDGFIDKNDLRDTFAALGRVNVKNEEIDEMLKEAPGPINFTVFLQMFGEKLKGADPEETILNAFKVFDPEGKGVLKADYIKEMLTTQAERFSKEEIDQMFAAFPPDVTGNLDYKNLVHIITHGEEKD
CDMF75 IC15,IC50,Compound
0.5 µM,2.1 µM,"COC(=O)N[C@@H]1CCc2cc(-c3nc(C4CC4)no3)ccc21 [Compound 350, methyl (R)-(5-(3-cyclopropyl-1,2,4-oxadiazol-5-yl)-2,3-dihydro-1H-inden-1-yl)carbamate]"
18.8 µM,> 39.2 µM,"CCc1nc(-c2ccc3c(c2)CC[C@H]3NC(=O)[C@@H]2CCNC(=O)C2)no1 [Compound 351, (R)-N-((R)-5-(5-ethyl-1,2,4-oxadiazol-3-yl)-2,3-dihydro-1H-inden-1-yl)-2-oxopiperidine-4-carboxamide]"
13.0 µM,> 39.2 µM,"CCc1nc(-c2ccc3c(c2)CC[C@H]3NC(=O)C2CCC(=O)N(C)C2)no1 (stereo partly drawn) [Compound 352, N-((R)-5-(5-ethyl-1,2,4-oxadiazol-3-yl)-2,3-dihydro-1H-inden-1-yl)-1-methyl-6-oxopiperidine-3-carboxamide]"
29.0 µM,> 39.2 µM,"CCc1nc(-c2ccc3c(c2)CC[C@H]3NC(=O)C2CCCCN2C)no1 (stereo partly drawn) [Compound 353, N-((R)-5-(5-ethyl-1,2,4-oxadiazol-3-yl)-2,3-dihydro-1H-inden-1-yl)-1-methylpiperidine-2-carboxamide]"
34.1 µM,> 39.2 µM,"CCc1nc(-c2ccc3c(c2)CC[C@H]3NC(=O)C2CCCC(=O)N2)no1 (stereo partly drawn) [Compound 354, N-((R)-5-(5-ethyl-1,2,4-oxadiazol-3-yl)-2,3-dihydro-1H-inden-1-yl)-6-oxopiperidine-2-carboxamide]"
2.9 µM,10.9 µM,"CCc1nc(-c2ccc3c(c2)CC[C@H]3NC(=O)[C@H]2CCNC(=O)C2)no1 [Compound 355, (S)-N-((R)-5-(5-ethyl-1,2,4-oxadiazol-3-yl)-2,3-dihydro-1H-inden-1-yl)-2-oxopiperidine-4-carboxamide]"
13.4 µM,> 39.2 µM,"CCc1nc(-c2ccc3c(c2)CC[C@H]3NC(=O)[C@H]2COCCN2)no1 [Compound 356, (R)-N-((R)-5-(5-ethyl-1,2,4-oxadiazol-3-yl)-2,3-dihydro-1H-inden-1-yl)morpholine-3-carboxamide]"
0.5 µM,1.7 µM,"CCc1nc(-c2ccc3c(c2)CC[C@H]3NC(=O)OC2COC2)no1 [Compound 357, oxetan-3-yl (R)-(5-(5-ethyl-1,2,4-oxadiazol-3-yl)-2,3-dihydro-1H-inden-1-yl)carbamate]"
0.6 µM,2.2 µM,"CCc1nc(-c2ccc3c(c2)CC[C@H]3NC(=O)OCC2COC2)no1 [Compound 358, oxetan-3-ylmethyl (R)-(5-(5-ethyl-1,2,4-oxadiazol-3-yl)-2,3-dihydro-1H-inden-1-yl)carbamate]"
2.3 µM,9.5 µM,"CCc1nc(-c2ccc3c(c2)CC[C@H]3NC(=O)OCC(C)(C)OC)no1 [Compound 359, 2-methoxy-2-methylpropyl (R)-(5-(5-ethyl-1,2,4-oxadiazol-3-yl)-2,3-dihydro-1H-inden-1-yl)carbamate]"
21.6 µM,> 39.2 µM,"CCc1nc(-c2ccc3c(c2)CC[C@H]3NC(=O)OCC2CN(C(C)=O)C2)no1 [Compound 360, (1-acetylazetidin-3-yl)methyl (R)-(5-(5-ethyl-1,2,4-oxadiazol-3-yl)-2,3-dihydro-1H-inden-1-yl)carbamate]"
23.7 µM,> 39.2 µM,"CCc1nc(-c2ccc3c(c2)CC[C@H]3NC(=O)OCC2CN(C(=O)OC)C2)no1 [Compound 361, methyl (R)-3-((((5-(5-ethyl-1,2,4-oxadiazol-3-yl)-2,3-dihydro-1H-inden-1-yl)carbamoyl)oxy)methyl)azetidine-1-carboxylate]"
1.9 µM,6.6 µM,"CCc1nc(-c2ccc3c(c2)CC[C@H]3NC(=O)OCC2CN(C(N)=O)C2)no1 [Compound 362, (1-carbamoylazetidin-3-yl)methyl (R)-(5-(5-ethyl-1,2,4-oxadiazol-3-yl)-2,3-dihydro-1H-inden-1-yl)carbamate]"
4.7 µM,21.1 µM,"CCc1nc(-c2ccc3c(c2)CC[C@H]3NC(=O)OCC2CN(C(=O)NC)C2)no1 [Compound 363, (1-(methylcarbamoyl)azetidin-3-yl)methyl (R)-(5-(5-ethyl-1,2,4-oxadiazol-3-yl)-2,3-dihydro-1H-inden-1-yl)carbamate]"
1.6 µM,6.8 µM,"Cc1cc(-c2ccc3c(c2)OC[C@H]3NC(=O)c2nnn(C)n2)no1 [Compound 364, (S)-2-methyl-N-(6-(5-methylisoxazol-3-yl)-2,3-dihydrobenzofuran-3-yl)-2H-tetrazole-5-carboxamide]"
8.6 µM,> 39.2 µM,"Cn1nccc1C(=O)N[C@@H]1CCc2cc(-c3ncccn3)ccc21 [Compound 366, (R)-1-methyl-N-(5-(pyrimidin-2-yl)-2,3-dihydro-1H-inden-1-yl)-1H-pyrazole-5-carboxamide]"
13.9 µM,> 39.2 µM,"Cn1nccc1C(=O)N[C@@H]1CCc2cc(-c3ccccn3)ccc21 [Compound 367, (R)-1-methyl-N-(5-(pyridin-2-yl)-2,3-dihydro-1H-inden-1-yl)-1H-pyrazole-5-carboxamide]"

CDMF75 IC15,IC50,Compound
17.6 µM,> 39.2 µM,"Cn1nccc1C(=O)N[C@@H]1CCc2cc(-c3cnccn3)ccc21 [Compound 368, (R)-1-methyl-N-(5-(pyrazin-2-yl)-2,3-dihydro-1H-inden-1-yl)-1H-pyrazole-5-carboxamide]"
39.2 µM,> 39.2 µM,"Cn1nccc1C(=O)N[C@@H]1CCc2cc(-c3ccnnc3)ccc21 [Compound 369, (R)-1-methyl-N-(5-(pyridazin-4-yl)-2,3-dihydro-1H-inden-1-yl)-1H-pyrazole-5-carboxamide]"
3.8 µM,19.1 µM,"Cn1nccc1C(=O)N[C@@H]1CCc2cc(-c3nccs3)ccc21 [Compound 370, (R)-1-methyl-N-(5-(thiazol-2-yl)-2,3-dihydro-1H-inden-1-yl)-1H-pyrazole-5-carboxamide]"
0.7 µM,2.9 µM,"Cc1cnc(-c2ccc3c(c2)CC[C@H]3NC(=O)c2ccnn2C)s1 [Compound 371, (R)-1-methyl-N-(5-(5-methylthiazol-2-yl)-2,3-dihydro-1H-inden-1-yl)-1H-pyrazole-5-carboxamide]"
3.5 µM,15.7 µM,"Cn1nccc1C(=O)N[C@@H]1CCc2cc(-c3ccccc3)ccc21 [Compound 372, (R)-1-methyl-N-(5-phenyl-2,3-dihydro-1H-inden-1-yl)-1H-pyrazole-5-carboxamide]"
0.9 µM,3.2 µM,"Cc1cccc(-c2ccc3c(c2)CC[C@H]3NC(=O)c2ccnn2C)c1 [Compound 373, (R)-1-methyl-N-(5-(m-tolyl)-2,3-dihydro-1H-inden-1-yl)-1H-pyrazole-5-carboxamide]"
1.7 µM,6.4 µM,"Cc1ccc(-c2ccc3c(c2)CC[C@H]3NC(=O)c2ccnn2C)cc1 [Compound 374, (R)-1-methyl-N-(5-(p-tolyl)-2,3-dihydro-1H-inden-1-yl)-1H-pyrazole-5-carboxamide]"
10.6 µM,> 39.2 µM,"Cc1ccc(-c2ccc3c(c2)CC[C@H]3NC(=O)c2ccnn2C)cn1 [Compound 375, (R)-1-methyl-N-(5-(6-methylpyridin-3-yl)-2,3-dihydro-1H-inden-1-yl)-1H-pyrazole-5-carboxamide]"
3.9 µM,18.5 µM,"Cc1cncc(-c2ccc3c(c2)CC[C@H]3NC(=O)c2ccnn2C)c1 [Compound 376, (R)-1-methyl-N-(5-(5-methylpyridin-3-yl)-2,3-dihydro-1H-inden-1-yl)-1H-pyrazole-5-carboxamide]"
4.5 µM,17.8 µM,"Cc1cccc(-c2ccc3c(c2)CC[C@H]3NC(=O)c2ccnn2C)n1 [Compound 377, (R)-1-methyl-N-(5-(6-methylpyridin-2-yl)-2,3-dihydro-1H-inden-1-yl)-1H-pyrazole-5-carboxamide]"
2.1 µM,12.2 µM,"Cc1ccnc(-c2ccc3c(c2)CC[C@H]3NC(=O)c2ccnn2C)n1 [Compound 378, (R)-1-methyl-N-(5-(4-methylpyrimidin-2-yl)-2,3-dihydro-1H-inden-1-yl)-1H-pyrazole-5-carboxamide]"
39.2 µM,> 39.2 µM,"Cc1nccc(-c2ccc3c(c2)CC[C@H]3NC(=O)c2ccnn2C)n1 [Compound 379, (R)-1-methyl-N-(5-(2-methylpyrimidin-4-yl)-2,3-dihydro-1H-inden-1-yl)-1H-pyrazole-5-carboxamide]"
2.2 µM,10.3 µM,"Cc1ccnc(-c2ccc3c(c2)CC[C@H]3NC(=O)c2ccnn2C)c1 [Compound 380, (R)-1-methyl-N-(5-(4-methylpyridin-2-yl)-2,3-dihydro-1H-inden-1-yl)-1H-pyrazole-5-carboxamide]"
39.2 µM,> 39.2 µM,"Cc1cc(-c2ccc3c(c2)CC[C@H]3NC(=O)c2ccnn2C)ncn1 [Compound 381, (R)-1-methyl-N-(5-(6-methylpyrimidin-4-yl)-2,3-dihydro-1H-inden-1-yl)-1H-pyrazole-5-carboxamide]"
2.7 µM,10.1 µM,"Cc1cncc(-c2ccc3c(c2)CC[C@H]3NC(=O)c2ccnn2C)n1 [Compound 382, (R)-1-methyl-N-(5-(6-methylpyrazin-2-yl)-2,3-dihydro-1H-inden-1-yl)-1H-pyrazole-5-carboxamide]"
3.4 µM,11.6 µM,"Cc1cnnc(-c2ccc3c(c2)CC[C@H]3NC(=O)c2ccnn2C)c1 [Compound 383, (R)-1-methyl-N-(5-(5-methylpyridazin-3-yl)-2,3-dihydro-1H-inden-1-yl)-1H-pyrazole-5-carboxamide]"
